Results as given in patent US20250162973A1, “METHODS OF SYNTHESIS AND USES OF AGRIMOL COMPOUNDS” (Versitech Limited, priority 2022, published 2025).

Columns and labels:
TALDO1 = target: T1, TALDO1 (Homo sapiens, UniProt P37837); experiment: Targeted metabolomics of PPP intermediates and intracellular NADPH; assay type: cell-based; conditions: after treatment of AGB
T1 construct: endogenous in cells
T1 sequence (P37837 1-337): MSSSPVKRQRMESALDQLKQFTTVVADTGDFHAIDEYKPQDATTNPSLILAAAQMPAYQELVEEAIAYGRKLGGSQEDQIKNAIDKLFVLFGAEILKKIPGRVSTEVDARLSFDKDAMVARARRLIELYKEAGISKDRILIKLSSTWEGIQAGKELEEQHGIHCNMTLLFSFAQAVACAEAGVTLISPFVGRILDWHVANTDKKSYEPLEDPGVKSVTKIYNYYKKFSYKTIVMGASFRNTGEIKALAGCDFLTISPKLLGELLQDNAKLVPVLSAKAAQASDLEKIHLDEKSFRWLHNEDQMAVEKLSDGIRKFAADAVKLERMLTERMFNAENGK
Procedure: TALDO1 is a key enzyme of the nonoxidative PPP providing ribose-5-phosphate for nucleic acid synthesis and NADPH (the reduced form of Nicotinamide adenine dinucleotide phosphate) for lipid biosynthesis. Targeted metabolomics analysis was performed for measuring of the intermediate metabolites involved in the PPP pathway. […] PPP activation has been widely found in different types of cancer because of the uncontrolled proliferation of cancer cells. […] Moreover, enhanced production of NADPH is crucial to increase the intracellular redox power of cancer cells to escape from oxidative stress.

NCI-H460 cells = experiment: Apoptosis assays (Hoechst, annexin V/PI, Western blotting); assay type: cell-based, human
Procedure: FIG. 4 is a graph showing AGB induced apoptosis in NCI-H460 cells by the Annexin-V/PI double-staining assay. After treating with AGB for 24 h and 36 h, respectively, cells were stained with annexin V-FITC and propidium iodide and analyzed by flow cytometry.
The mitochondrial fission and mitochondrial membrane potential depolarization are involved in the induction of cell apoptosis and also play a central role to the apoptotic pathway. Therefore, several apoptosis assays were performed. […] Induction of apoptosis by AGB in NCI-H460 cells was further supported through monitoring PARP, caspase-9, and caspase-3 cleavage as well as through changes in the levels of a panel of proteins commonly involved in apoptotic signaling via Western blotting experiments (data not shown).

[1] = Hematological examination in MTD test; assay type: in vivo; conditions: 12.8 mg/kg, day 14
Procedure: The MTD test in this study was done in collaboration with Tianjin Institute of Pharmaceutical Research (TIPR). […] A total of 80 mice were randomly assigned into four groups (10 male and 10 female mice in each group) in this study. Four groups included 16.0 mg/kg of AGB group, 12.8 mg/kg of AGB group, vehicle control group (10% DMSO+0.8% Tween-80 in normal saline), and the blank control group (normal saline).
Then, the body weights of surviving animals were measured on the 1st, 3rd, 7th and 14th days, respectively. At the end of experiment, the hematology, blood biochemistry, anatomical examination, and histopathology examination were performed in both vehicle control group and the MTD group (12.8 mg/kg). The data were presented as the mean±standard deviation.

CS = target: T2, CS (Homo sapiens, UniProt O75390); experiment: Tryptophan fluorescence quenching assay; assay type: binding
T2 sequence (O75390 28-466): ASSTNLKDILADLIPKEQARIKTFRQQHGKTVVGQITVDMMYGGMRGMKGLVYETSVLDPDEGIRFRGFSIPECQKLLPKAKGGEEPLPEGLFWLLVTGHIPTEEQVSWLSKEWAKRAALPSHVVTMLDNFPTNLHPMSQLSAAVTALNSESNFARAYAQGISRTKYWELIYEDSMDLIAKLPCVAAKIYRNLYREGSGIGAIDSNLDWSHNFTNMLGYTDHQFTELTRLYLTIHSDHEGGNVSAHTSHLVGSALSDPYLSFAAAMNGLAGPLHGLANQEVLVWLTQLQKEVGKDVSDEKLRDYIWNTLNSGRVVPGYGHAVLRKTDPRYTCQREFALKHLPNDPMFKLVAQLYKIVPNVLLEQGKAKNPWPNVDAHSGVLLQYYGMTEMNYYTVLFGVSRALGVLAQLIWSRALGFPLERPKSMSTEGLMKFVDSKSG
Procedure: FIG. 5A is a volcano plot (ΔTm, p-value) for TPP data obtained from NCI-H460 cells with 4 μM AGB treatment for 1 h. The criteria were set as ΔTm>2° C. and p<0.05. FIG. 5B is a graph showing results of the tryptophan fluorescence quenching assay for the direct interaction between AGB and three target proteins. Upper, tryptophan fluorescence titration of recombinant proteins with AGB. […] For CS, its fluorescence decrease was saturated when AGB concentrations increased to about 32 μM. Lower, the normalized tryptophan intensities at an emission of 320 nm were plotted as a function of total added concentration of AGB. The dissociation constants (Kd) between AGB and three proteins were then calculated by fitting this plot with Stern-Volmer Equation. […] The fluorescence intensity was presented as percentage relative to control groups. […]
To further examine whether AGB interacts directly with the above three identified proteins, the intrinsic tryptophan fluorescence properties of these proteins were examined in the presence of AGB at different concentrations. Upon binding with AGB, proteins experience a change of the tryptophan environment, which can be visualized by fluorescence spectroscopy. As shown in FIG. 5B the tryptophan fluorescence of three proteins were all quenched by AGB in a concentration-dependent manner.

CCCC(=O)c1c(O)c(Cc2c(O)c(Cc3c(O)c(C)c(OC)c(C(=O)CCC)c3O)c(O)c(C(=O)[C@@H](C)CC)c2O)c(O)c(C)c1OC [AGB, Agrimol B]
PPP intermediate metabolites (TALDO1): significantly decreased | intracellular content of NADPH (TALDO1): significant decrease | Hoechst staining (NCI-H460 cells): chromatin condensation and fragmentation | release of mitochondrial factors to cytosol (NCI-H460 cells): release of cytochrome c and apoptosis inducing factor AIF | annexin V and PI flow cytometry (NCI-H460 cells; 24 h and 36 h AGB treatment): increase of the early and late apoptotic cell populations | E (eosinophils) [1]: 0.29 ± 0.11 ×10^9/L | E(%) [1]: 5.48 ± 1.64% | HCT [1]: 47.54 ± 2.21% | HGB [1]: 138.20 ± 9.38 g/L | L (lymphocytes) [1]: 4.22 ± 1.32 ×10^9/L | L(%) [1]: 77.53 ± 2.05% | M (monocytes) [1]: 0.09 ± 0.03 ×10^9/L | M(%) [1]: 1.64 ± 0.46% | MCH [1]: 15.20 ± 0.97 pg | MCHC [1]: 291.00 ± 20.17 g/L | MCV [1]: 52.25 ± 2.16 fL | N (neutrophils) [1]: 0.78 ± 0.28 ×10^9/L | N(%) [1]: 14.24 ± 2.15% | PLT [1]: 1733.80 ± 371.53 ×10^9/L | RBC [1]: 9.11 ± 0.45 ×10^12/L | Ret [1]: 0.81 ± 0.09 ×10^12/L | Ret(%) [1]: 8.83 ± 0.74% | WBC [1]: 5.44 ± 1.66 ×10^9/L | Kd (CS; Stern-Volmer analysis, read-out: Kd of AGB binding to CS): 4.9 µM | AGB concentration at which the CS fluorescence decrease was saturated (CS; tryptophan fluorescence titration): about 32 μM
